Results: article PMC6508677, “Identification of druggable small molecule antagonists of the Plasmodium falciparum hexose transporter PfHT and assessment of ligand access to the glucose permeation pathway via FLAG-mediated protein engineering” (PLoS ONE, 2019)
Values joined by “and” are separate entries in the source; they are usually repeats but may differ in a detail not shown here. Equal entries are not always repeated. Where two headings read alike, the source gives them in different places.

Biological target: T1, FTPfHT (Plasmodium falciparum, UniProt Q7KWJ5)
T1 sequence (Q7KWJ5 1-504): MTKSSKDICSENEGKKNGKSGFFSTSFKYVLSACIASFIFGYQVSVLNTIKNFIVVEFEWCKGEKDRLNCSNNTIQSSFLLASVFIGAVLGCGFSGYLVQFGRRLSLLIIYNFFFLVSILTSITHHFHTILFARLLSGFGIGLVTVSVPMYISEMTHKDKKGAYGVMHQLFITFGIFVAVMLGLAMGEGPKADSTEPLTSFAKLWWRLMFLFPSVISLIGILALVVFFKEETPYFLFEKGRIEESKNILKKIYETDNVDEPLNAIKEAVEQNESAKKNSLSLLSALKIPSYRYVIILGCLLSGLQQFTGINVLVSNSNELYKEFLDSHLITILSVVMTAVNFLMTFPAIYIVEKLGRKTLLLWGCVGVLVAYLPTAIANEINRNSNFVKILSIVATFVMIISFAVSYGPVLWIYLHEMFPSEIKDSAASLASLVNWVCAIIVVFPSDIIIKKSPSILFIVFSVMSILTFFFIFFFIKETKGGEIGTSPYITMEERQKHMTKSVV
Assay: 2-DG uptake by HEK293 cells overexpressing FLAG-tagged PfHT (FTPfHT)
Assay type: cell-based
Design: the 38–40 kDa band represents full length PfHT; expressed in transfected cells; host or cells: HEK293-FLIP (HEK293)
Conditions: for remaining activity at 0.001 µM: concentration 0.001 µM, Expt 1-3
Text: Generation of HEK293 cells overexpressing PfHT and human GLUTs 1–4 were described elsewhere. Briefly, HEK293 cells were transfected with pcDNA3.1 FLII12Pglu-7006 (Addgene), containing the fluorescence resonance energy transfer (FRET) glucose sensor (HEK293-FLIP) and PfHT, human GLUT1 (hGLUT1), hGLUT2, hGLUT3, hGLUT4, hGLUT5 or hGLUT8 using Optifect (Life Technologies) according to manufacturer’s specifications. To increase retention of GLUT8 at the plasma membrane, the dileucine sorting signal E^7E^8XXXLL was modified to R^7R^8XXXLL as described in [17]. Stable transfectants were selected for G418 and hygromycin resistance to select for FRET sensor and hexose transporter, respectively. HEK293-FLIP cells were also used to generate cells stably transfected with FLAG-tagged PfHT (FTPfHT). FLAG tag ([…]) followed by a triple glycine linker and a tobacco etch virus (TEV) protease site (ENLYFQS) followed by a triple glycine linker was added to the N-terminus of PfHT via PCR [18] using Phusion Hot Start II High-Fidelity DNA Polymerase (Fisher Scientific). Single clones were selected by comparing their abilities to transport glucose as assayed via FRET and radiolabeled hexose uptake. In all cell lines, except for HEK293 cells overexpressing hGLUT1 and hGLUT5, native hGLUT1 was knocked down using shRNA as described elsewhere. Transcript levels of the individual GLUTs expressed in each cell line are as described in [13, 15] and in S1 Fig.
Glucose uptake by P. falciparum was performed essentially as described. P. falciparum strain 3D7 was cultured in 100 mm tissue culture dishes (Techno Plastic Products) in a 2% suspension of human erythrocytes and RPMI 1640 medium until reaching > 7.5% parasitemia. Cells were pelleted via centrifugation and resuspended in RPMI 1640 medium. To determine the uptake of radiolabeled glucose into the parasite, parasites were isolated from infected erythrocytes by permeablization with saponin (0.05 w/v), followed by centrifugation, aspiration of supernatant and washing of the pellet 3X with saline solution (135 mM NaCl, 2 mM KCl, 25 mM HEPES, 0.2 mM glucose and 1 mM MgCl2; pH 7.1) to remove cellular debris. WU-1 or DMSO vehicle were added to 100 μl parasites (resuspended in saline) 5 min prior to the addition of 100 μl [^14C]2-DOG (0.2- μCi/ml final concentration). 2-DG uptake was stopped after 2 min by layering the entire reaction over 300 μl of an oil mixture (5:4 mix of dibutyl phthalate / dinonyl phthalate) in Eppendorf tubes and centrifuged at 15,850 × g for 2 mins. The ratio of the estimated intracellular concentration of radiolabel relative to the extracellular concentration were calculated as described. Uptake of radiolabeled hexose into HEK293 cells was measured in glucose-free HBSS as described previously. Briefly, cells were plated at 400,000 cells/well overnight at 37°C in 24-well plates pre-treated with PEI. After 30-min incubation at 37°C in glucose-free HBSS in the presence of vehicle or increasing concentrations of compound, 2-DG uptake was measured in glucose-free HBSS for 4 min at 37°C. Cultures were washed in ice-cold 1X PBS and lysed in 0.1% Triton X-100 in 1X PBS. Radiolabeled hexose uptake was determined by liquid scintillation counting (Ultima Gold, Thermo Fisher) and normalized to total protein per well. Uptake data are plotted as percent uptake relative to vehicle-treated cells. Kinetic analyses were performed using the indicated concentrations of substrate and WU-1, with quenching of uptake after 1 min incubation. Incubation times had been previously determined as being in the linear range of time-dependent radiolabeled hexose uptake (2 min for 2-DG uptake into freed parasites; 2 and 4 min for D-Frc and 2-DG uptake HEK cell lines, respectively). Data were fit by least squares nonlinear regression analysis using GraphPad Prism 6.0 software.

[1] = FTPfHT, 2-DG Uptake, average of Expt 1-3, read-out: AVE IC50
[2] = FTPfHT, 2-DG Uptake, single experiments Expt 1-3, read-out: IC50
[3] = HEK293, 4 min, FTPfHT, read-out: 2-DG Uptake AVE
[4] = IC50 for inhibition of 2-DG uptake, HEK293 cells overexpressing FTPfHT

Q: With `Cc1ccc(S(=O)(=O)CCNC(=O)c2c(-c3c(Cl)cccc3Cl)noc2C)cc1` [WU-1, 3-(2,6-dichlorophenyl)-5-methyl-N-[2-(4-methylbenzenesulfonyl)ethyl]-1,2-oxazole-4-carboxamide] as the compound, how does the IC50 [1] read?
A: The IC50 was 19.5 µM.

Q: What about the IC50 [2] of the same compound?
A: The IC50 was 19.2 µM and 18.9 µM and 20.5 µM.

Q: What about the remaining activity at 0.001 µM [3] of the same compound?
A: The remaining activity at 0.001 µM was 100%.

Q: And the remaining activity at 0.313 µM (HEK293, 4 min, FTPfHT, concentration 0.313 µM, read-out: 2-DG Uptake AVE)?
A: Its remaining activity at 0.313 µM is 95.9%.

Q: And the remaining activity at 0.625 µM (HEK293, 4 min, FTPfHT, concentration 0.625 µM, read-out: 2-DG Uptake AVE)?
A: Its remaining activity at 0.625 µM is 92.1%.

Q: What about the remaining activity at 1.25 µM (HEK293, 4 min, FTPfHT, concentration 1.250 µM, read-out: 2-DG Uptake AVE) of the same compound?
A: The remaining activity at 1.25 µM was 81.9%.

Q: What about the remaining activity at 2.5 µM (HEK293, 4 min, FTPfHT, concentration 2.500 µM, read-out: 2-DG Uptake AVE) of the same compound?
A: The remaining activity at 2.5 µM was 84.9%.

Q: What about the remaining activity at 5 µM (HEK293, 4 min, FTPfHT, concentration 5.0 µM, read-out: 2-DG Uptake AVE) of the same compound?
A: Its remaining activity at 5 µM is 80.6%.

Q: And the remaining activity at 10 µM (HEK293, 4 min, FTPfHT, concentration 10.0 µM, read-out: 2-DG Uptake AVE)?
A: The remaining activity at 10 µM was 64.8%.

Q: What about the remaining activity at 20 µM (HEK293, 4 min, FTPfHT, concentration 20 µM, read-out: 2-DG Uptake AVE) of the same compound?
A: Its remaining activity at 20 µM is 52.4%.

Q: And the remaining activity at 40 µM (HEK293, 4 min, FTPfHT, concentration 40 µM, read-out: 2-DG Uptake AVE)?
A: The remaining activity at 40 µM was 41.1%.

Q: And the remaining activity at 80 µM (HEK293, 4 min, FTPfHT, concentration 80 µM, read-out: 2-DG Uptake AVE)?
A: Its remaining activity at 80 µM is 29.3%.

Q: What about the remaining activity at 160 µM (HEK293, 4 min, FTPfHT, concentration 160 µM, read-out: 2-DG Uptake AVE) of the same compound?
A: Its remaining activity at 160 µM is 19.9%.

Q: And the remaining activity at 225 µM (HEK293, 4 min, FTPfHT, concentration 225 µM, read-out: 2-DG Uptake AVE)?
A: The remaining activity at 225 µM was 17.1%.

Q: And the IC50 [4]?
A: The IC50 was 19.5 ± 0.5 µM.

Q: With `C=C1[C@@H](C)[C@H]2[C@H](Cc3ccccc3)NC(=O)[C@]23OC(=O)/C=C/[C@H](O)CCC[C@@H](C)C/C=C/[C@H]3[C@@H]1O` [CB, cytochalasin B] as the compound, how does the IC50 [1] read?
A: Its IC50 is 29.9 µM.

Q: What about the IC50 [2] of the same compound?
A: The IC50 was 26.6 µM and 30.5 µM and 32.6 µM.

Q: What about the remaining activity at 0.001 µM [3] of the same compound?
A: The remaining activity at 0.001 µM was 100%.

Q: And the remaining activity at 0.3906 µM (HEK293, 4 min, FTPfHT, concentration 0.3906 µM, read-out: 2-DG Uptake AVE)?
A: Its remaining activity at 0.3906 µM is 97.8%.

Q: What about the remaining activity at 0.7812 µM (HEK293, 4 min, FTPfHT, concentration 0.7812 µM, read-out: 2-DG Uptake AVE) of the same compound?
A: Its remaining activity at 0.7812 µM is 93.2%.

Q: And the remaining activity at 1.56 µM (HEK293, 4 min, FTPfHT, concentration 1.56 µM, read-out: 2-DG Uptake AVE)?
A: The remaining activity at 1.56 µM was 95.4%.

Q: What about the remaining activity at 3.125 µM (HEK293, 4 min, FTPfHT, concentration 3.125 µM, read-out: 2-DG Uptake AVE) of the same compound?
A: Its remaining activity at 3.125 µM is 90%.

Q: And the remaining activity at 6.25 µM (HEK293, 4 min, FTPfHT, concentration 6.25 µM, read-out: 2-DG Uptake AVE)?
A: Its remaining activity at 6.25 µM is 81.9%.

Q: What about the remaining activity at 12.5 µM (HEK293, 4 min, FTPfHT, concentration 12.5 µM, read-out: 2-DG Uptake AVE) of the same compound?
A: The remaining activity at 12.5 µM was 72.3%.

Q: And the remaining activity at 25 µM (HEK293, 4 min, FTPfHT, concentration 25 µM, read-out: 2-DG Uptake AVE)?
A: The remaining activity at 25 µM was 56%.

Q: And the remaining activity at 50 µM (HEK293, 4 min, FTPfHT, concentration 50 µM, read-out: 2-DG Uptake AVE)?
A: The remaining activity at 50 µM was 44.6%.

Q: And the remaining activity at 100 µM (HEK293, 4 min, FTPfHT, concentration 100 µM, read-out: 2-DG Uptake AVE)?
A: Its remaining activity at 100 µM is 32.2%.

Q: And the remaining activity at 200 µM (HEK293, 4 min, FTPfHT, concentration 200 µM, read-out: 2-DG Uptake AVE)?
A: The remaining activity at 200 µM was 22.7%.

Q: And the remaining activity at 400 µM (HEK293, 4 min, FTPfHT, concentration 400 µM, read-out: 2-DG Uptake AVE)?
A: The remaining activity at 400 µM was 12.9%.

Q: And the IC50 [4]?
A: Its IC50 is 29.9 ± 1.8 µM.
